What was measured:
[1] = test system: norbornane type ester hydrolase; experiment: Optically selective hydrolysis of (±)-exo-norbornane type esters by purified enzyme, optical resolution GC; assay type: biochemical, Acetobacter pasteurianus ATCC 12873; details: 1% ester, 30° C., 30 minutes
Description: Various kinds of the (±)-exo-norbornane type esters respectively comprising formyl, acetyl, propionyl, n-butyryl or isobutyryl as the acyl R in formula I were allowed to come in contact with an enzyme solution, respectively as a substrate. Each of the obtained products was extracted with an equal volume of chloroform. The extract was analyzed by gas chromatography using a column for optical resolution (produced by J & W Scientific). (-)-Norborneol was selectively produced in all the extracts. […] In detail, referring to FIG. 1, (+)-(1S, 2S, 4R)-exo-norbornyl acetate is hydrolysed to the corresponding (-)-norborneol by the use of the present enzyme. The obtained (-)-norborneol can be converted to (+)-d-norcamphor by oxidation. The remaining (-)-(1R, 2R, 4S)-exo-norbornyl acetate can be hydrolysed to the corresponding (+)-norborneol by the use of an alkali. The obtained (+)-norborneol can be converted to (-)-d-norcamphor by oxidation.
The purified enzyme obtained in Example 1 was allowed to come in contact with various kinds of 1% (±)-exo-norbornane type esters respectively including formyl, acetyl, propionyl, n-butyryl and isobutyryl as the acyl R in formula I. The reaction was conducted at 30° C. for 30 minutes. The resultant was extracted with an equal volume of chloroform. The extract was analyzed by gas chromatography using a column for optical resolution (produced by J & W Scientific). As is apparent from the results shown in Table 2, (-)-norborneol was enantio-selectively produced from any of the esters.

[2] = test system: E. coli JM109 transformed by using the plasmid pUNA-Hf; experiment: Hydrolysis of (±)-exo-norbornyl acetate by transformant E. coli JM109 with pUNA-Hf; assay type: cell-based; details: 1% substrate, 30° C., 10 minutes
Description: E. coli JM109 was transformed by using the plasmid pUNA-Hf. […] Then, the transformant was mixed with a 1% (±)-exo-norbornyl acetate mixture and allowed to stand at 30° C. for 10 minutes. The resulting mixture was analyzed by the method described in item 5 of Example 2. […] Thus, the optical selectivity was confirmed to be as high as that of the enzyme derived from Acetobacter pasteurianus obtained in Example 1.

[3] = test system: E. coli JM103 including the plasmid pUNA-Hf; experiment: Optically selective deacetylation of exo-norbornyl acetate by E. coli JM103/pUNA-Hf cell suspension; assay type: cell-based; details: 1% substrate, 30° C., 15 minutes
Description: (±)-Exo-norbornyl acetate used as a substrate was optically selectively deacetylated by E. coli JM103 including the plasmid pUNA-Hf as follows. The bacterial cells were collected from the cultured broth of E. coli JM103/pUNA-Hf as mentioned above by centrifugation, and suspended in an equal volume of a 0.1M phosphate buffer (pH 7.0). Then, 1% (±)-exo-norbornyl acetate was added to 1.5 ml of the obtained suspension, and the reaction was conducted at 30° C. for 15 minutes. The resultant reaction mixture was analyzed by the method described in item 5 of Example 2.

[4] = test system: norbornane type ester hydrolase; experiment: Effect of inhibitors on the enzyme (pNPA method); assay type: biochemical, Acetobacter pasteurianus ATCC 12873; details: 5 mM inhibitor, phosphate buffer pH 7.0, 30° C., 2 hours, then pNPA method
Description: The present enzyme was allowed to stand in phosphate buffers respectively including various inhibitors (5 mM) at pH 7.0 for 2 hours. Then, the activity of the enzyme was measured by the method described in item 3.
The above-mentioned activity measurement was performed with regard to 0.5 ml of the enzyme solution of 0.1M phosphate buffer (pH 7.0) containing 5 mM of one of the following inhibitors: ethylenediaminetetraacetic acid (EDTA), phenylmethylsulfonylfluoride (PMSF), N-tosyl-L-phenylalanyl chloromethyl ketone (TPCK), N-tosyl-L-lysyl chloromethyl ketone (TLCK), diisopropyl fluorophosphate (DFP), N-ethylmaleimide and iodoacetic acid. The enzyme solutions, including the respective inhibitors, were allowed to stand at 30° C. for 2 hours.

CC(C)C(=O)O[C@H]1C[C@@H]2CC[C@H]1C2 (relative stereo) [isobutyryl]
Produced norborneol (+)-isomer [1]: 0.69 mg/mL
Produced norborneol (-)-isomer [1]: 2.76 mg/mL

CC(=O)O[C@H]1C[C@@H]2CC[C@H]1C2 (relative stereo) [Acetyl, (±)-exo-norbornyl acetate]
Produced norborneol (+)-isomer [1]: 0.19 mg/mL
Produced norborneol (-)-isomer [1]: 2.48 mg/mL
(+)-exo-norborneol produced [2]: 0.15 mg/mL
(-)-exo-norborneol produced [2]: 1.68 mg/mL
(+)-exo-norborneol produced [3]: 0.15 mg/mL
(-)-exo-norborneol produced [3]: 1.91 mg/mL

O=CO[C@H]1C[C@@H]2CC[C@H]1C2 (relative stereo) [Formyl]
Produced norborneol (+)-isomer [1]: 0.15 mg/mL
Produced norborneol (-)-isomer [1]: 1.49 mg/mL

CCC(=O)O[C@H]1C[C@@H]2CC[C@H]1C2 (relative stereo) [Propionyl]
Produced norborneol (+)-isomer [1]: 0.45 mg/mL
Produced norborneol (-)-isomer [1]: 3.39 mg/mL

CCCC(=O)O[C@H]1C[C@@H]2CC[C@H]1C2 (relative stereo) [n-butyryl]
Produced norborneol (+)-isomer [1]: 0.29 mg/mL
Produced norborneol (-)-isomer [1]: 2.30 mg/mL

O=S(=O)(F)Cc1ccccc1 [PMSF, phenylmethylsulfonylfluoride]
inhibition of the enzyme by inhibitor [4]: completely inhibited

Reference: patent US5484725A, “Norbornane type ester hydrolase from Acetobacter pasteurianus” (Shionogi & Co., Ltd., priority 1993, dated 1996)
